The numbers were not newly measured in patent US20230225964A1, “MICROSTIRRING DEVICES AND TECHNIQUES FOR ENHANCING BIOAVAILABILITY OF ORALLY ADMINISTERED DRUGS” (The Regents of the University of California, priority 2022, published 2023), which cites them from elsewhere.

Values after ≈ are worked out from the molar mass of the structure shown.

With `N[C@@H](Cc1ccc(O)c(O)c1)C(=O)O` [L-Dopa, levodopa], the solubility in water is 66 mg/mL (≈ 335 mM).
